Measured values reported in patent US4771123A, “Peptide thioneamides as selective substrates for cysteine proteases” (Enzyme Systems Products, Inc., priority 1986, dated 1988).

Key:
Format in all cases: biochemical
[1] = system: Trypsin; experiment: Hydrolysis of oxyamide and thioneamide substrates by trypsin (catalytic constants, Table I); settings: pH 7.5, Tris buffer (50 mM), 10 mM CaCl2, 12.5% DMSO
Experimental: (§1) Table I below provides a comparison between hydrolysis rates of trypsin and papain acting on two different oxyamides and on their corresponding thioneamides. Trypsin was used at pH 7.5 in a Tris buffer (50 mM), with 10 mM CaCl2, and 12.5% DMSO. Papain was used at pH 6.5 in a thiol buffer (52 mM NaH2 PO4, 31 mM dithiothreitol, 2.1 mM EDTA) and 12.5% DMSO. Table I lists the catalytic constants kcat (moles product formed per second per mole enzyme), KM (M), and kcat /KM (M^-1 sec^-1) for the indicated substrates.

[2] = target: T1, Papain (Carica papaya, UniProt P00784); experiment: Selective detection assay, rate of AIE formation with papain alone (Table II); settings: Papain 6.85×10^-6 M; thiol buffer pH 6.5, 2.5% DMSO; substrate 2.46×10^-4 M (Cbz-Lys-AIE) or 2.53×10^-4 M (Cbz-Lys.PSI.[CS]-AIE)
T1 sequence (P00784 134-345): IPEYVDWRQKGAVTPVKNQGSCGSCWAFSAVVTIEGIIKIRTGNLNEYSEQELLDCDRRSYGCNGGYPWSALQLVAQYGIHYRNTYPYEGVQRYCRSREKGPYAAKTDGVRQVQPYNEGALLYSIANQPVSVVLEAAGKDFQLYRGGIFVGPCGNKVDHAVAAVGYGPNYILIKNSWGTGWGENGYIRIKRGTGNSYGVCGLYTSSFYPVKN
Experimental: (§2) A thiol buffer at pH 6.5 was used (52 mM NaH2 PO4, 31 mM dithiothreitol, 2.1 mM EDTA) with 2.5% DMSO. The enzyme concentrations in the assays were 6.85×10^-6 M for papain, and 1.28×10^-6 M for trypsin. Substrate concentrations were 2.46×10^-4 M for Cbz-Lys-AIE, and 2.53×10^-4 M for Cbz-Lys.PSI.[CS]-AIE. Rates are given in terms of moles AIE formed per minute.

[3] = target: T1, Papain; experiment: Hydrolysis of oxyamide and thioneamide substrates by papain (catalytic constants, Table I); settings: pH 6.5, thiol buffer (52 mM NaH2PO4, 31 mM dithiothreitol, 2.1 mM EDTA), 12.5% DMSO
Experimental: as §1

[4] = system: Trypsin; experiment: Selective detection assay, rate of AIE formation with trypsin alone (Table II); settings: Trypsin 1.28×10^-6 M; thiol buffer pH 6.5, 2.5% DMSO; substrate 2.46×10^-4 M (Cbz-Lys-AIE) or 2.53×10^-4 M (Cbz-Lys.PSI.[CS]-AIE)
Experimental: as §2

Row | Molecule | Km [1] | kcat [1] | kcat /KM [1] | Rate of AIE formation [2] | Km [3] | kcat [3] | kcat /KM [3] | rate of product formation by trypsin (in words) [1] | Rate of AIE formation [4]
1 | COC(=O)c1cc(NC(=O)[C@H](CCCCN)NC(=O)OCc2ccccc2)cc(C(=O)OC)c1 [Cbz--Lys--AIE, Cbz-Lys-AIE] | 168 µM | 1.15 × 10^-1 moles product formed per secon | 686 M⁻¹ s⁻¹ | 6.03 moles AIE formed per minute | 281 µM | 2.95 × 10^-2 moles product formed per secon | 105 M⁻¹ s⁻¹ | – | –
2 | Br.COC(=O)c1cc(NC(=S)[C@H](CCCNC(=N)N)NC(=O)[C@H](Cc2ccccc2)NC(=O)OCc2ccccc2)cc(C(=O)OC)c1 [Cbz--Phe--Arg.psi.[CS]--AIE, Cbz-Phe-Arg.PSI.[CS]-AIE.HBr] | – | – | – | – | 574 µM | 5.35 moles product formed per secon | 0.0932 M⁻¹ s⁻¹ | NO RATE | –
3 | Cbz--Phe--Arg--AIE | 502 µM | 9.03 × 10^-1 moles product formed per secon | 1800 M⁻¹ s⁻¹ | – | 813 µM | 3.53 × 10^1 moles product formed per secon | 43500 M⁻¹ s⁻¹ | – | –
4 | Cbz-Lys.PSI.[CS]-AIE.HCl [Cbz--Lys.psi.[CS]--AIE] | – | – | – | 1.15 moles AIE formed per minute | 213 µM | 4.00 × 10^-3 moles product formed per secon | 18.8 M⁻¹ s⁻¹ | NO RATE | 0.00 moles AIE formed per minute
